Reference: paper PMC8480759, “Inhibitors of histone deacetylase 6 based on a novel 3-hydroxy-isoxazole zinc binding group” (Journal of Enzyme Inhibition and Medicinal Chemistry, 2021)

Key:
HDAC6 [1] = test system: HDAC6; parameters: method as in ChEMBL (accessed on May 29th, 2020); conditions: ChEMBL ligands most similar to compound 13; ref ChEMBL (accessed on May 29th, 2020); cited from earlier work
[2] = Storage stability at solid state; type: physicochemical; conditions: room temperature and −20 °C
Excerpt: In a recent study, we described the effect of different linker chemotypes on the potency and selectivity of a series of HDACi carrying a hydroxamate ZBG[6]. […] Being constituted by a small heteroaromatic ring with hydrogen bond acceptor and donor atoms, we hypothesised that the 3-hydroxy-isoxazole moiety could satisfy the pharmacophore requirements necessary for the coordination of the catalytic zinc ion of HDAC6. Therefore, in this work we investigated a series of 3-hydroxy-isoxazole derivatives bearing different aromatic or heteroaromatic linkers and various cap groups.

HDAC6 [3] = biological target: T1, HDAC6 (Homo sapiens, UniProt Q9UBN7); assay: In vitro HDAC6 fluorogenic enzymatic assay; type: biochemical; parameters: purchased BPS Bioscience #50076 (Fluorogenic Assay Kit); conditions: for IC50: recombinant human HDAC6, dose-response 300 µM to 135 nM; for HDAC6 activity at the highest tested concentration: 300 µM, remaining enzyme activity, called inactive
T1 sequence (Q9UBN7 1-1215): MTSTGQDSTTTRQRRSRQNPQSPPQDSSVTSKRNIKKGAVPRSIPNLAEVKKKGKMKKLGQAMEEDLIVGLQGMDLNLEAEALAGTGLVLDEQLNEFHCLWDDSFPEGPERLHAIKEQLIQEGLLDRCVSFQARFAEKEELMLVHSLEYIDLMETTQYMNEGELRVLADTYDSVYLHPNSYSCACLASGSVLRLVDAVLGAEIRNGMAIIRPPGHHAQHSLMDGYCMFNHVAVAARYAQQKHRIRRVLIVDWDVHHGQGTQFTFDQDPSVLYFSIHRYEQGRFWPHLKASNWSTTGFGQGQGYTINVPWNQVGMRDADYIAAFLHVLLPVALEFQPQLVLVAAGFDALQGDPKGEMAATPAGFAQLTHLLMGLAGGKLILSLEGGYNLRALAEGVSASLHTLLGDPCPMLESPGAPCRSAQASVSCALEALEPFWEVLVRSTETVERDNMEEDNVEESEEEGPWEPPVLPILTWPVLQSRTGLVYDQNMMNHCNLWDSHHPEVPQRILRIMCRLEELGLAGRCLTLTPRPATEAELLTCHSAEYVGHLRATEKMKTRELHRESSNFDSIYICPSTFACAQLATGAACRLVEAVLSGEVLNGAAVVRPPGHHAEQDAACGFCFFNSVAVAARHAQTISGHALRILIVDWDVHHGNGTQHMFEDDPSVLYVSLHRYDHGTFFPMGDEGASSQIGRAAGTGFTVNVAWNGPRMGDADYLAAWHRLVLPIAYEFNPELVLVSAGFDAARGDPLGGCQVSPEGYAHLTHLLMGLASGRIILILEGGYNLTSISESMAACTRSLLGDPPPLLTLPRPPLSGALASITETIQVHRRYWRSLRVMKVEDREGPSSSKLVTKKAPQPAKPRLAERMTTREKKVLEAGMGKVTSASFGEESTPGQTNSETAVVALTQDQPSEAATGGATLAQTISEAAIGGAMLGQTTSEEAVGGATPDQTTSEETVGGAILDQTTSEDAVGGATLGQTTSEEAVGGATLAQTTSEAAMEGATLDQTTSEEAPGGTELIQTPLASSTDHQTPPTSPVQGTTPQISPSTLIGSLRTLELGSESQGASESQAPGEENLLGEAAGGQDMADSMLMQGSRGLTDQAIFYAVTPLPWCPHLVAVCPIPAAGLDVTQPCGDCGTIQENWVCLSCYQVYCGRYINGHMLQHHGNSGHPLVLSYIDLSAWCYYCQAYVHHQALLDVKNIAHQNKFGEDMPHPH

DU145 cells = assay: Anti-proliferative assay (MTT cell viability); type: cell-based, human; conditions: for effect on proliferation rate of DU145 cells: 50 µM, MTT, 24, 48, 72 h
Experimental: (§1) The results corroborate the inhibitory activity of 17, 23, 25 and 27 at concentrations lower than 10 µM. […] HDACs contribution to CRPC is known[20] and the possibility to arrest CRPC proliferation by acting on HDAC targets is expanding in the scientific literature[21]^,[22]. After administration of the selected compounds for 24 h at 10 µM concentration, the effect on the acetylation levels of histone H3 and α-tubulin (respectively, HDAC1 and HDAC6 targets) was investigated. […] Lastly, in the same cell line, the anti-proliferative effect was measured in dose and time dependent manner (Figure S4).
Figure S4. Cell viability assay (MTT) of the tested compounds in human prostate cancer cell lines (DU145). Cells were treated with 4 increasing concentrations (1, 5, 10, and 50 µM) of tested compounds, monitored at 24, 48, and 72 hours and tested with SAHA and Tubastatin A as reference compounds. Data are expressed as mean ± SEM. […]
1.5 Anti-proliferative assay
Cell viability was determined on DU145 cell line using Thiazolyl Blue Tetrazolium Bromide [3-(4,5-dimethylthiazol-2-yl)-2,5-diphenyltetrazolium bromide] (MTT; Sigma-Aldrich) assay after treatment with new compounds at indicated concentrations. A total of 2 × 10^4 cells/well were plated in a 96-well plate and treated, in duplicates, with new compounds at different concentrations for 24, 48, and 72 hours. Absorbance was read at a wavelength of 570 nm with a TECAN M-200 reader (Tecan, Männedorf, Switzerland).

[4] = test system: acetylation levels of histone H3 (HDAC1 target) in DU145 cells; assay: Western blot of histone H3 acetylation in DU145 cells; type: cell-based, human; conditions: 24 h, 10 µM
Experimental: as §1
Figure S3. Western blotting analysis of the tested and reference compounds SAHA and Tubastatin A on acetylation levels of histone H3 and α-tubulin in DU145 cells. GAPDH and H4 were used as a loading control. Densitometric values were analyzed using ImageJ Software and are reported on the top of bands as the ratio between loading control and acetylated target.
(1 picture or pasted object on this page, not shown here) […]
1.4 Western blot analysis
The prostate cancer cell line DU145 (ATCC) was grown in RPMI medium (Euroclone, Milan, Italy) with 10% fetal bovine serum (Euroclone), 2 mM L-glutamine (Euroclone), and antibiotics (100 U/mL penicillin, […] streptomycin) (Euroclone). Cells were stimulated with drugs for […]
Total Protein Extraction and western blot
After the induction with the test compounds at the indicated times and concentrations, DU145 cells were then harvested, washed with phosphate-buffered saline (PBS) (Euroclone), and lysed for 15 min at 4 °C in lysis extraction buffer with protease and phosphatase inhibitors (50 mM Tris -HCl pH 8.0, 150 mM NaCl, 1% NP40, 10 mM sodium fluoride, 0.1 mM sodium orthovanadate, […] phenylmethylsulfonyl fluoride 58 (PMSF), 20 g/mL aprotinin, […] leupeptin, […] antipain, 10 mM p -nitrophenyl phosphate, […] pepstatin A and 20 nM okada ic acid). Cells were vortexed then centrifuged at 13000 rpm for 30 min at 4 °C. Bradford assay (Biorad, Italy) was used to quantify protein concentration. […] The immune complexes were first detected with horseradish peroxidase-conjugated species-specific secondary antiserum (Bio-Rad Laboratories, Milan, Italy), and then by an enhanced chemiluminescence reaction (Bio-Rad Laboratories, Milan, Italy). […]
were harvested and washed twice with cold 1× PBS and lysed in Triton extraction buffer (TEB; PBS containing 0.5% Triton X 100 (v/v), 2 mM PMSF, and 0.02% (w/v) NaN3) for 10 min on ice, with gentle stirring. […] The samples were then centrifuged at 2000 rpm for 10 min at 4 °C; the concentration of protein in the supernatant was determined […]
using a Bradford assay (Bio-Rad, CA, USA). […] Semi-quantitative analysis was performed using ImageJ software. […]

HDAC6 [5] = biological target: T1, HDAC6; assay: HDAC6 assay with acetylated p53 peptide (residues 379–382, RHKKAc-AMC) as substrate; type: biochemical

| IC50 (HDAC6 [3]) [µM] | Structure (SMILES) | IC50 (HDAC6 [1]) [µM] | other results |
| --- | --- | --- | --- |
| > 300 | Oc1cc(-c2cccc(C(F)(F)F)c2)on1 [Compound 14] |  |  |
| > 300 | Oc1cc(-c2ccccc2Cl)on1 [Compound 15] |  |  |
| > 300 | COc1ccc(-c2cc(O)no2)cc1 [Compound 16] |  |  |
| 1.3 | Oc1cc(-c2ccc(OCc3ccccc3)cc2)on1 [Compound 17] |  | effect on proliferation rate of DU145 cells (DU145 cells): reduced the proliferation rate; effect on acetylation levels of histone H3 [4]: no effect; concentration showing inhibitory activity on HDAC6 (HDAC6 [5]): below 10 µM |
| 16.4 | O=[N+]([O-])c1ccc(-c2cc(O)no2)cc1 [Compound 18] |  |  |
| > 300 | Oc1cc(-c2ccc3ccccc3c2)on1 [Compound 19] |  | HDAC6 activity at the highest tested concentration (HDAC6 [3]): more than 55% |
| > 300 | Oc1cc(-c2cccc3ccccc23)on1 [Compound 20] |  | HDAC6 activity at the highest tested concentration (HDAC6 [3]): more than 55% |
| 29.6 | Oc1cc(-c2ccc(Br)o2)on1 [Compound 21] |  |  |
| 73.3 | Oc1cc(-c2cccc(Br)c2)on1 [Compound 22] |  |  |
| 8.2 | Oc1cc(-c2ccc(OCc3ccc(Cl)c(Cl)c3)cc2)on1 [Compound 27] |  | effect on proliferation rate of DU145 cells (DU145 cells): reduced the proliferation rate; anti-proliferative activity at the lowest concentrations (DU145 cells; DU145, late phases, lowest concentrations (tested 1, 5, 10, 50 µM)): exerted anti-proliferative activity; effect on acetylation levels of histone H3 [4]: no effect; concentration showing inhibitory activity on HDAC6 (HDAC6 [5]): below 10 µM |
| 82.3 | Oc1cc(-c2ccc(Br)cn2)on1 [Compound 28] |  |  |
| > 300 | O=C(O)c1cc(-c2ccccc2)on1 [Compound 29, 5-phenylisoxazole-3-carboxylic acid] |  | HDAC6 activity at the highest tested concentration (HDAC6 [3]): more than 55%; HDAC6 inhibition (in words) (HDAC6 [3]; in vitro assays, Table 1): inactive |

Further lines, the compound ahead of its results:

| Structure (SMILES) | IC50 (HDAC6 [3]) [µM] | IC50 (HDAC6 [1]) [µM] | other results |
| --- | --- | --- | --- |
| O=C(NO)c1ccccc1 [CHEMBL16300] |  | 0.115 |  |
| CNC(=O)c1ccc(C(=O)NO)cc1 [CHEMBL2333343] |  | 0.028 |  |
| O=C(NO)C1=CCCCC1 [CHEMBL2333344] |  | 0.012 |  |
| O=C(NO)C1CCCCC1 [CHEMBL2333345] |  | 0.376 |  |
| O=C(NO)C1=CCCC1 [CHEMBL2333346] |  | 0.03 |  |
| Cc1cccc(C(=O)NO)c1 [CHEMBL2381522] |  | 0.65 |  |
| CNc1ccc(C(=O)NO)cc1 [CHEMBL3415449] |  | 1.77 |  |
| O=C(C#Cc1ccccc1)NO [Compound 12, N-hydroxy-3-phenyl-propiolamide] |  |  | melting point: 174 to 176 °C; stability on storage [2]: converted into 13 over time |
| O=c1cc(-c2ccccc2)o[nH]1 [Compound 13, 3-hydroxy-5-phenyl-isoxazole] | 98.1 |  | stability on storage [2]: stable |
| Cc1ccc(-c2cc(O)no2)s1 [Compound 24] | 21.9 |  |  |
| Oc1cc(-c2ccco2)on1 [Compound 26] | > 100 |  |  |
